Experimental findings from patent publication US7037922B1, “Aryl fused 2,4-disubstituted pyridines: NK3 receptor ligands” (Neurogen Corporation, priority 2000, dated 2006) are described below.

The target of the assay is T1, NK-3 receptor (Homo sapiens, UniProt P29371).
T1 construct: expressed in transfected cells; total cellular membranes used
T1 sequence (P29371 1-465): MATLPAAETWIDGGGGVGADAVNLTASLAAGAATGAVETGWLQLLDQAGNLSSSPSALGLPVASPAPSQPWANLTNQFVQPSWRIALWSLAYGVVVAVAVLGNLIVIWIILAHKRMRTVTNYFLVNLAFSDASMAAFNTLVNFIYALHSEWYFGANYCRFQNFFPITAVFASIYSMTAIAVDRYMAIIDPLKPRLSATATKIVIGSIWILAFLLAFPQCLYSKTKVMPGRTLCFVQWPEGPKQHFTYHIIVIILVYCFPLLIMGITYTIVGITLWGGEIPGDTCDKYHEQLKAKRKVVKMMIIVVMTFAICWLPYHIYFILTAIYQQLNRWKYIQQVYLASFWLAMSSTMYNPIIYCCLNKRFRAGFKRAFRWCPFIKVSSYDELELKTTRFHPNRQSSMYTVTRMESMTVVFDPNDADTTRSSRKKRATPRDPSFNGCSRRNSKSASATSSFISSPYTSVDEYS
The experiment in a line: NK3 receptor binding assay (displacement of 125I-methylPhe7-neurokinin B). The settings on record: membranes of Chinese hamster ovary cells expressing cloned human NK-3 receptor; 0.15 nM 125I-methylPhe7-neurokinin B; 2 hours at 4° C. The method, then: The following assay is a standard assay of NK3 receptor binding, which is used to determine the NK-3 receptor binding affinity of compounds.
Assays are performed as described in Krause et al (Proc. Natl. Acad. Sci. USA 94: 310–315, 1997). The NK-3 receptor complementary DNA was cloned from human hypothalamic RNA using standard procedures. The receptor cDNA was inserted into the expression vector pM^2 to transfect the mammalian Chinese hamster ovary cell line, and a stably expressing clonal cell line was isolated, characterized and used for the current experiments. Cells are grown in minimal essential medium alpha containing 10% fetal bovine serum and 0.8 mg G418 per ml. Cells were liberated from cell culture plates with No-zyme (PBS base, JRH Biosciences), and harvested by low speed centrifugation. The cell pellet was homogenized in TBS (0.05 m TrisHCl, 120 mM NaCl, pH 7.4) with a Polytron homogenizer at setting 5 for 20 seconds, and total cellular membranes were isolated by centrifugation at 47,500×g for 10 minutes. The membrane pellet was resuspended by homogenization with the Polytron as above, and the membranes were isolated by centrifugation at 47,500×g for 10 minutes. This final membrane pellet was resuspended in TBS at a protein concentration of 350 μg/ml.
Receptor binding assays contain a total volume of 200 μl containing 50 μg membrane protein, 0.15 nM ^125I-methylPhe^7-neurokinin B, drug or blocker in TBS containing 1.0 mg/ml bovine serum albumen, 0.2 mg/ml bacitracin, 20 ug/ml leupeptin and 20 μg/ml chymostatin. Incubations are carried out for 2 hours at 4° C., and the membrane proteins are harvested by passing the incubation mixture by rapid filtration over presoaked GF/B filters to separate bound from free ligand. […] After filtration of the incubation mixture, filters are rinsed 4 times with ice-cold TBS containing 0.01% sodium dodecyl sulfate and counted in a β-plate scintillation counter. […] Data are collected in duplicate determinations, averaged, and the percent inhibition of total specific binding is calculated. […]
For orientation: Displacement assays read how much labelled ligand stays bound in the presence of the test substance.
In general, IC50 refers to the concentration that gives 50% inhibition. A low value points to greater potency in that assay. For the compound `CC[C@H](NC(=O)c1cc(-c2ccccc2)nc2ccsc12)c1ccccc1` [Compound 2], the IC50 was determined as 0.08 µM.
As for `CC[C@H](NC(=O)c1cc(-c2ccccc2)nc2ccncc12)c1ccccc1` [Compound 1], the figure is 0.05 µM; as for `CC[C@H](NC(=O)c1cc(-c2ccccc2)nc2ncccc12)c1ccccc1` [Compound 3], 0.1 µM.
